ChEMBL document CHEMBL3994657, “3,4-Dihydroquinazoline derivatives inhibit the activities of cholinesterase enzymes” (Bioorg Med Chem Lett, 2017)
pIC50, pKi: −log10 of the molar value.

What was measured:
[1] = molecular target: T1, Cholinesterase (Equus caballus, UniProt P81908); test: Inhibition of equine serum BCHE using butyrylthiocholine iodide as substrate preincubated for 20 mins followed by substrate addition measured for 5 mins by spectrophotometry based Ellman method
[2] = molecular target: Acetylcholinesterase (Electrophorus electricus, UniProt O42275); test: Inhibition of electric eel AChE using acetylthiocholine iodide as substrate preincubated for 20 mins followed by substrate addition measured for 5 mins by spectrophotometry based Ellman method
[3] = molecular target: T1, Cholinesterase; test: Mixed/noncompetitive inhibition of equine serum BCHE using butyrylthiocholine iodide as substrate preincubated for 20 mins followed by substrate addition measured for 5 mins by Lineweaver-Burk plot analysis; settings: read-out: Ki(app)
[4] = Selectivity ratio of IC50 for electric eel AChE to IC50 for equine serum BCHE

T1 sequence (P81908 whole entry): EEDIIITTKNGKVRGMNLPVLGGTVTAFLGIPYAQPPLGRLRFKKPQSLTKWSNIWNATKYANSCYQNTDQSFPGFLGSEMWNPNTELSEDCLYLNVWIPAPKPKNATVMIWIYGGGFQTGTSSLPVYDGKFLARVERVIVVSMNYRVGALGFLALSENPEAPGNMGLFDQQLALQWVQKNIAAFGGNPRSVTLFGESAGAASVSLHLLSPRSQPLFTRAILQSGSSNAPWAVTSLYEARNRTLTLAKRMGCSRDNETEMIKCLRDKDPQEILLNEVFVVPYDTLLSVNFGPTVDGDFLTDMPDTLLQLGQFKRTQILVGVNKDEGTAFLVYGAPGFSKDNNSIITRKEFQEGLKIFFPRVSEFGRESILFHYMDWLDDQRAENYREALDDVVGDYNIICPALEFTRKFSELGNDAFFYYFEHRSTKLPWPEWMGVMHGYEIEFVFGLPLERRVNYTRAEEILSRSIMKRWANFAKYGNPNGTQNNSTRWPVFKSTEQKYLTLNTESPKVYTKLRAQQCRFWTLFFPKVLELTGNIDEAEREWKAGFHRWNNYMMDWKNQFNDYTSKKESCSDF
Chain of Acetylcholinesterase (O42275 whole entry): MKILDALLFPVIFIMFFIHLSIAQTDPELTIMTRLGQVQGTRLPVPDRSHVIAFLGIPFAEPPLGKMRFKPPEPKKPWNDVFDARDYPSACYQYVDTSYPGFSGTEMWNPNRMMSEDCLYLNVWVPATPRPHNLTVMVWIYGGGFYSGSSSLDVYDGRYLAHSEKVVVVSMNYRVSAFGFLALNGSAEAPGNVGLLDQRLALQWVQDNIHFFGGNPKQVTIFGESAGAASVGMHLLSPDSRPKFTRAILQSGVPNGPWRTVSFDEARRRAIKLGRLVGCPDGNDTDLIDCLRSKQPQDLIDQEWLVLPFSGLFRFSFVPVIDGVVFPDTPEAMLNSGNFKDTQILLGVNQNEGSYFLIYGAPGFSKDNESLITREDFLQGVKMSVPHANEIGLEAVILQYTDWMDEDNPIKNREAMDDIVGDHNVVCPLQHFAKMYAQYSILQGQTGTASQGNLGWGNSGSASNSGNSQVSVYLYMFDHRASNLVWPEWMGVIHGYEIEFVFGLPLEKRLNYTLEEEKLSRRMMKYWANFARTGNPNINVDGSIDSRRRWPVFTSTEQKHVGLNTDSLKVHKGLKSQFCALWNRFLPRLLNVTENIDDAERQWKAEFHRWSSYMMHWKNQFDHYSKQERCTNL

Row | Compound | pIC50 [1] | pIC50 [2] | pKi [3] | Ratio IC50 [4]
1 | CN(C)CCCCCN(C)C1=Nc2ccccc2C(CC(=O)NCc2ccc(F)cc2)N1c1ccc(-c2ccc(F)cc2)cc1 (configuration not stated) | 6.62 | 5.19 |  | 
2 | CN(CCCCCN1CCCC1)C1=Nc2ccccc2C(CC(=O)NCc2ccccc2)N1c1ccc(-c2ccccc2)cc1 (configuration not stated) | 7.35 | 5.18 | 7.54 | 146
3 | CN(C)CCCCCN(C)C1=Nc2ccccc2C(CC(=O)NCc2ccc(F)cc2)N1c1ccc(C2CCCCC2)cc1 (configuration not stated) | 6.40 | 5.36 |  | 
4 | O=C(CC1c2ccccc2N=C(N2CCN(CCN3CCCC3)CC2)N1c1ccc(-c2ccccc2)cc1)NCc1ccc(F)cc1 (configuration not stated) | 5.83 | < 5.00 |  | 
5 | CN(C)CCN1CCN(C2=Nc3ccccc3C(CC(=O)NCc3ccc(F)cc3)N2c2ccc(-c3ccccc3)cc2)CC1 (configuration not stated) | 5.59 | ≤ 5.00 |  | 
6 | CN(C)CCCCCN(C)C1=Nc2c(F)cc(F)cc2C(CC(=O)NCc2ccccc2)N1c1ccc(-c2ccccc2)cc1 (configuration not stated) | 6.42 | 5.92 |  | 
7 | COC(=O)CC1c2ccccc2N=C(N2CCN(C)CC2)N1C1CCCCC1 (configuration not stated) | < 5.00 | ≤ 5.00 |  | 
8 | O=C(CC1c2ccccc2N=C(N2CCN(CCN3CCCC3)CC2)N1c1ccc(C2CCCCC2)cc1)NCc1ccc(F)cc1 (configuration not stated) | 5.67 | 5.10 |  | 
9 | COC(=O)CC1c2ccccc2N=C(N(C)CCCCCN)N1c1ccc(-c2ccccc2)cc1 (configuration not stated) | 6.85 | ≤ 5.00 |  | 
10 | CN(C)CCCCCN(C)C1=Nc2ccccc2C(CC(=O)NCc2ccccc2)N1c1ccc(-c2ccccc2)cc1 (configuration not stated) | 7.21 | ≤ 5.00 | 7.29 | 161
11 | O=C(CC1c2cccc(F)c2N=C(N2CCN(CCN3CCCC3)CC2)N1c1ccc(C2CCCCC2)cc1)NCc1ccc(F)cc1 (configuration not stated) | 5.69 | < 5.00 |  | 
12 | COc1ccc(CNC(=O)CC2c3ccccc3N=C(N3CCN(CCN(C)C)CC3)N2c2ccc(-c3ccccc3)cc2)cc1 (configuration not stated) | 5.21 | < 5.00 |  | 
13 | CN1CCN(C2=Nc3ccccc3C(CC(=O)NCc3ccccc3)N2c2ccccc2)CC1 (configuration not stated) | < 5.00 | < 5.00 |  | 
14 | CN(CCCCCN)C1=Nc2ccccc2C(CC(=O)NCc2ccccc2)N1c1ccc(-c2ccccc2)cc1 (configuration not stated) | 5.28 | 5.39 |  | 
